Test results as given in patent publication US12516082B2, “Metal-carbohydrate complex” (ARCZONE K.K., priority 2020, dated 2026).

What was measured:
Assay type in all cases: cell-based, mouse
MIN6 [1] = experiment: Proportion of dead cells by propidium iodide, MIN6 at 4 DIV in culture
Method: (§1) A mouse pancreatic β-cell tumorigenic (insulinoma) cell line MIN6 (Miyazaki J. et al., Endocrinology 127:126-132, 1990) was used to perform the following experiment. Here, all experiments which include an experiment where the above-described compound B (hereinafter called LGG) is administered and an experiment where the above-described compound A (hereinafter called DGG) is administered and in which about 1,000 MIN6 cells were placed in 96 wells were carried out by taking care to avoid external disturbances as much as possible.
MIN6 cells derived from mouse pancreas are a heterogeneous cell population (Yamato, E. et al., PLOS One 8: e61211, 2013). Up to about 4 to 5 DIV after the start of culture, normal cells, that is, insulin-producing β-cells of pancreatic islets of Langerhans accounted for the majority. […]
Specifically, LGG and DGG were administered to MIN6 at 0 to 1,000 μm at 4 DIV in culture, and after the elapse of 90 minutes, the proportion of the number of dead cells evaluated using a dead cell marker propidium iodide (PI) was measured as a function of their concentrations. […] However, the vertical axis is a value (%) normalized by the fluorescence intensity of the total number of cells assuming that the number of dead cells at a concentration of 1,000 μm is the total number of cells in each well. […]

MIN6 [2] = experiment: Optical microscope observation of cell conditions, MIN6 at 5 DIV, with or without PHT
Method: as §1
Here, a further experiment was carried out to verify whether the LGG-induced cell death clearly shown in FIG. 2 was indeed caused by the intracellular uptake of LGG. Specifically, whether the cell death is inhibited was examined by administering LGG in the presence of phloretin (hereinafter called PHT).
PHT functions as an inhibitor on various membrane transport proteins such as water channel proteins or glucose transporter proteins (Ono K. et al., Cancers 12:850, 2020). […] That is, it is estimated that, when an L-glucose derivative is applied to MIN6 cells in the presence of PHT, incorporation of LGG into “cells into which the L-glucose derivative can be incorporate” which are partially present in a heterogeneous cell population is inhibited by the effect of inhibiting a non-transporter type transport mechanism by PHT. […]

MIN6 [3] = experiment: Calcein fluorescence intensity (activity of living cells), MIN6 at 5 DIV, with or without PHT; conditions: FIG. 5
Method: as §1
Furthermore, the effect of LGG on cells was quantitatively analyzed in the presence or absence of PHT. Specifically, similarly to the cases of FIG. 3 described above, the fluorescence intensity of calcein, which is a fluorescent marker representing activities of living cells, was evaluated for the case (A) where LGG was not administered to MIN6 (at 5 DIV) (control experiment), the case (B) where 100 μm LGG was administered thereto for 10 minutes (LGG), and the case (C) where 100 μm LGG was administered thereto for 10 minutes after 150 μm PHT was administered in advance. In FIG. 5, the error bars indicate standard errors SE, and the numerical values in parentheses indicate the number of ROIs analyzed. […]

MIN6 [4] = experiment: Proportion of dead cells, MIN6 at long DIV (18 to 19 DIV) in culture; conditions: MIN6 at 19 DIV for LGG, 18 DIV for DGG; administered for 10 minutes; FIG. 6
Method: as §1
Specifically, LGG and DGG were administered to MIN6 at 0 to 1,000 μm at 4 DIV in culture, and after the elapse of 90 minutes, the proportion of the number of dead cells evaluated using a dead cell marker propidium iodide (PI) was measured as a function of their concentrations. […] However, the vertical axis is a value (%) normalized by the fluorescence intensity of the total number of cells assuming that the number of dead cells at a concentration of 1,000 μm is the total number of cells in each well. The broken line is an eye guide.
Furthermore, the same experiment as that of FIG. 2 was carried out for MIN6 at long DIV in culture. However, in either case, observations were carried out after DGG or LGG was administered for 10 minutes.

## CC[P+](CC)(CC)[Au-][S]C1OC(CO)C(O)C(O)C1O [LGG, (1-thio-β-L-glucopyranoside) (S-triethylphosphine) gold (I)]
MIN6 [1]; MIN6 at 4 DIV (mostly normal β-cells), from 50% effective doses
  safety against normal cells relative to DGG: approximately 10 times
MIN6 [1]; MIN6 at 4 DIV, 90 minutes after administration, interpolation of FIG. 2
  concentration above which cell death evaluated using PI becomes detectable: 10 μm
MIN6 [2]; 100 μm LGG for 10 minutes after 150 μm PHT in advance, FIG. 3C, 4f-4i
  cell conditions under optical microscope: cells indicating deterioration of the cell conditions are hardly recognized
MIN6 [2]; 100 μm LGG for 10 minutes, no PHT, FIG. 3B, 4e
  cell conditions under optical microscope: a part of cytoplasm in some cells protrudes outside the cells
MIN6 [3]; 100 μm LGG for 10 minutes after 150 μm PHT in advance
  fluorescence intensity of calcein (cell activity): decrease due to LGG in presence of PHT: significantly inhibited by PHT
MIN6 [3]; 100 μm LGG for 10 minutes, no PHT
  fluorescence intensity of calcein (cell activity) versus control: significantly reduced activities of MIN6 cells
MIN6 [4]
  concentration dependence of the proportion of the number of dead cells: almost matches the DGG concentration dependence
